This experiment can be described thus: DPPH radical scavenging antioxidant test (absorbance at 517 nm). It is filed as biochemical. The note with it: radical scavenging inhibition of DPPH, 0.2 mL DPPH (0.75 mM), compound 3 μM in ethanol, 30 min in the dark. The protocol:
The antioxidant properties of the 8-(4-nitroxybenzylideneamino)naphthalene-1,3-disulfonic acid were studied by adding 0.2 mL DPPH (0.75 mM)) to compound 8-(4-nitroxybenzylideneamino)naphthalene-1,3-disulfonic acid (III) (3 μM) in ethanol. After 30 min of incubation in the dark, the absorbance was read against a blank at 517 nm. Ascorbic acid (vitamin C) was used as standard antioxidants (positive control). A blank sample was prepared by 0.2 ml of DPPH in 3 ml ethanol. A negative control sample was run using ethanol instead of the sample. The radical scavenging inhibition was calculated using the following equation: […]
A general note: Loss of DPPH colour is used to gauge radical scavenging.

As to `O=C1O[C@H]([C@@H](O)CO)C(O)=C1O` [vit c, Ascorbic acid], the Inhibition (in general, the relative decrease from the control value, in per cent) was determined as 74%.

The record behind these values is US11926578B1, “8-(4-nitroxybenzylideneamino)naphthalene-1,3-disulfonic acid as an antioxidant compound” (KING FAISAL UNIVERSITY, priority 2023, dated 2024).
